Assay results as given in publication PMC12736255, “Reinvestigating Pyrrol-2-One-Based Compounds: From Antimicrobial Agents to Promising Antitumor Candidates” (Pharmaceuticals, 2025).

Tests used:
Test in all cases: NCI-60 single-dose screen
EKVX = assay type: cell-based, human; conditions: Homo sapiens, 10^–5 M, read-out: GI (%)
Excerpt: (§1) In the next step, all synthesized compounds were electronically submitted and accepted for testing to the National Cancer Institute (NCI) platform, for the single dose (10^−5 M) screening against a panel of 60 human tumor cell lines, representing leukemia, melanoma, and cancers of the lung, colon, central nervous system, ovary, kidney, prostate, and breast. The results are summarized in Table 2, with the best values highlighted in red (Figures S1–S14).

NCI-H226 = assay type: cell-based, human; conditions: Homo sapiens; NCI-H226, 10^–5 M; read-out: GI (%)
Excerpt: as §1

KM12 = assay type: cell-based; conditions: Homo sapiens; KM12, 10^–5 M; read-out: GI (%)
Excerpt: as §1

OVCAR-5 = assay type: cell-based; conditions: Homo sapiens; OVCAR-5, 10^–5 M; read-out: GI (%)
Excerpt: as §1

IGROV1 = assay type: cell-based; conditions: Homo sapiens, IGROV-1; IGROV1, 10^–5 M; read-out: GI (%)
Excerpt: as §1

SN12C = assay type: cell-based; conditions: Homo sapiens, 10^–5 M, read-out: GI (%)
Excerpt: as §1

CAKI-1 = assay type: cell-based; conditions: Homo sapiens; CAKI-1, 10^–5 M; read-out: GI (%)
Excerpt: as §1

SNB-19 = assay type: cell-based; conditions: Homo sapiens; SNB-19, 10^–5 M; read-out: GI (%)
Excerpt: as §1

HCT-15 = assay type: cell-based; conditions: Homo sapiens; HCT-15, 10^–5 M; read-out: GI (%)
Excerpt: as §1

HCT-116 = assay type: cell-based; conditions: Homo sapiens; HCT-116, 10^–5 M; read-out: GI (%)
Excerpt: as §1

HCC-2998 = assay type: cell-based; conditions: Homo sapiens; HCC-2998, 10^–5 M; read-out: GI (%)
Excerpt: as §1

HOP-92 = assay type: cell-based; conditions: Homo sapiens; HOP-92, 10^–5 M; read-out: GI (%)
Excerpt: as §1

SK-OV-3 = assay type: cell-based; conditions: Homo sapiens; SK-OV-3, 10^–5 M; read-out: GI (%)
Excerpt: as §1

OVCAR-8 = assay type: cell-based; conditions: Homo sapiens; OVCAR-8, 10^–5 M; read-out: GI (%)
Excerpt: as §1

MCF7 = assay type: cell-based; conditions: Homo sapiens; MCF7, 10^–5 M; read-out: GI (%)
Excerpt: as §1

SNB-75 = assay type: cell-based; conditions: Homo sapiens; SNB-75, 10^–5 M; read-out: GI (%)
Excerpt: as §1

LOX IMVI = assay type: cell-based; conditions: Homo sapiens, 10^–5 M, read-out: GI (%)
Excerpt: as §1

SK-MEL-28 = assay type: cell-based; conditions: Homo sapiens; SK-MEL-28, 10^–5 M; read-out: GI (%)
Excerpt: as §1

CCRF-CEM = assay type: cell-based; conditions: Homo sapiens, 10^–5 M, read-out: GI (%)
Excerpt: as §1

A549/ATCC = assay type: cell-based; conditions: Homo sapiens, 10^–5 M, read-out: GI (%)
Excerpt: as §1

NCI-H322M = assay type: cell-based; conditions: Homo sapiens, 10^–5 M, read-out: GI (%)
Excerpt: as §1

SF-539 = assay type: cell-based; conditions: Homo sapiens; SF-539, 10^–5 M; read-out: GI (%)
Excerpt: as §1

786-0 = assay type: cell-based; conditions: Homo sapiens; 786-0, 10^–5 M; read-out: GI (%)
Excerpt: as §1

UACC-257 = assay type: cell-based; conditions: Homo sapiens; UACC-257, 10^–5 M; read-out: GI (%)
Excerpt: as §1

PC-3 = assay type: cell-based; conditions: Homo sapiens, PC-3, PC-3, 10^–5 M; read-out: GI (%)
Excerpt: as §1

NCI-H23 = assay type: cell-based; conditions: Homo sapiens; NCI-H23, 10^–5 M; read-out: GI (%)
Excerpt: as §1

SK-MEL-2 = assay type: cell-based; conditions: Homo sapiens; SK-MEL-2, 10^–5 M; read-out: GI (%)
Excerpt: as §1

K-562 = assay type: cell-based; conditions: Homo sapiens, K562; K-562, 10^–5 M; read-out: GI (%)
Excerpt: as §1

HL-60(TB) = assay type: cell-based; conditions: Homo sapiens, 10^–5 M, read-out: GI (%)
Excerpt: as §1

NCI/ADR-RES = assay type: cell-based; conditions: Homo sapiens, 10^–5 M, read-out: GI (%)
Excerpt: as §1

UACC-62 = assay type: cell-based; conditions: Homo sapiens; UACC-62, 10^–5 M; read-out: GI (%)
Excerpt: as §1

COLO205 = assay type: cell-based; conditions: Homo sapiens, COLO 205; COLO205, 10^–5 M; read-out: GI (%)
Excerpt: as §1

SW-620 = assay type: cell-based; conditions: Homo sapiens; SW-620, 10^–5 M; read-out: GI (%)
Excerpt: as §1

MDA-MB-231/ATCC = assay type: cell-based; conditions: Homo sapiens, 10^–5 M, read-out: GI (%)
Excerpt: as §1

SK-MEL-5 = assay type: cell-based; conditions: Homo sapiens; SK-MEL-5, 10^–5 M; read-out: GI (%)
Excerpt: as §1

A498 = assay type: cell-based; conditions: Homo sapiens; A498, 10^–5 M; read-out: GI (%)
Excerpt: as §1

OVCAR-3 = assay type: cell-based; conditions: Homo sapiens; OVCAR-3, 10^–5 M; read-out: GI (%)
Excerpt: as §1

Compound	inhibition at 10 µM (EKVX) [%]	inhibition at 10 µM (NCI-H226) [%]	inhibition at 10 µM (KM12) [%]	inhibition at 10 µM (OVCAR-5) [%]	inhibition at 10 µM (IGROV1) [%]	inhibition at 10 µM (SN12C) [%]	inhibition at 10 µM (CAKI-1) [%]	inhibition at 10 µM (SNB-19) [%]	inhibition at 10 µM (HCT-15) [%]	inhibition at 10 µM (HCT-116) [%]	inhibition at 10 µM (HCC-2998) [%]	inhibition at 10 µM (HOP-92) [%]	inhibition at 10 µM (SK-OV-3) [%]	inhibition at 10 µM (OVCAR-8) [%]	inhibition at 10 µM (MCF7) [%]	inhibition at 10 µM (SNB-75) [%]	inhibition at 10 µM (LOX IMVI) [%]	inhibition at 10 µM (SK-MEL-28) [%]	inhibition at 10 µM (CCRF-CEM) [%]	inhibition at 10 µM (A549/ATCC) [%]	other results
O=C1C(Nc2ccc(I)cc2)=CC(c2ccc(F)cc2)N1c1ccc(I)cc1 (stereo not drawn) [3b]	24	4	26	0	7	28	13	8	9	21	0	36	12	8	56	100	0	8	74	13	inhibition at 10 µM (NCI-H322M): 10%; inhibition at 10 µM (SF-539): 51%; inhibition at 10 µM (786-0): 27%; inhibition at 10 µM (UACC-257): 8%; inhibition at 10 µM (PC-3): 0%; inhibition at 10 µM (NCI-H23): 8%; inhibition at 10 µM (SK-MEL-2): 31%; inhibition at 10 µM (K-562): 5%; inhibition at 10 µM (HL-60(TB)): 35%; inhibition at 10 µM (NCI/ADR-RES): 9%; inhibition at 10 µM (UACC-62): 0%; inhibition at 10 µM (COLO205): 27%; inhibition at 10 µM (SW-620): 24%; inhibition at 10 µM (MDA-MB-231/ATCC): 6%; inhibition at 10 µM (SK-MEL-5): 5%; inhibition at 10 µM (A498): 21%; inhibition at 10 µM (OVCAR-3): 9%
O=C1C(Nc2ccc(I)cc2)=CC(c2ccc(Cl)cc2)N1c1ccc(I)cc1 (stereo not drawn) [3c]	37	62	17	0	16	25	19	7	13	25	0	27	13	11	47	12	11	12	15	4	inhibition at 10 µM (NCI-H322M): 0%; inhibition at 10 µM (SF-539): 11%; inhibition at 10 µM (786-0): 18%; inhibition at 10 µM (UACC-257): 23%; inhibition at 10 µM (PC-3): 1%; inhibition at 10 µM (NCI-H23): 13%; inhibition at 10 µM (SK-MEL-2): 43%; inhibition at 10 µM (K-562): 10%; inhibition at 10 µM (HL-60(TB)): 0%; inhibition at 10 µM (NCI/ADR-RES): 1%; inhibition at 10 µM (UACC-62): 5%; inhibition at 10 µM (COLO205): 0%; inhibition at 10 µM (SW-620): 12%; inhibition at 10 µM (MDA-MB-231/ATCC): 5%; inhibition at 10 µM (SK-MEL-5): 18%; inhibition at 10 µM (A498): 19%; inhibition at 10 µM (OVCAR-3): 9%
O=C1C(Nc2ccc(I)cc2)=CC(c2ccc(Br)cc2)N1c1ccc(I)cc1 (stereo not drawn) [3d]	36	17	17	0	16	15	12	6	13	19	0	0	0	0	60	3	1	12	17	0	inhibition at 10 µM (NCI-H322M): 0%; inhibition at 10 µM (SF-539): 0%; inhibition at 10 µM (786-0): 6%; inhibition at 10 µM (UACC-257): 3%; inhibition at 10 µM (PC-3): 0%; inhibition at 10 µM (NCI-H23): 3%; inhibition at 10 µM (SK-MEL-2): 16%; inhibition at 10 µM (K-562): 15%; inhibition at 10 µM (HL-60(TB)): 0%; inhibition at 10 µM (NCI/ADR-RES): 0%; inhibition at 10 µM (UACC-62): 0%; inhibition at 10 µM (COLO205): 0%; inhibition at 10 µM (SW-620): 16%; inhibition at 10 µM (MDA-MB-231/ATCC): 0%; inhibition at 10 µM (SK-MEL-5): 20%; inhibition at 10 µM (A498): 5%; inhibition at 10 µM (OVCAR-3): 5%
